Experimental data taken from PMC6409468, “Isolation and identification of angiotensin I-converting enzyme inhibitory peptides derived from thermolysin-injected beef M. longissimus” (Asian-Australasian Journal of Animal Sciences, 2018).
Residues, ends and D or L forms follow the SMILES beside them. No end group written: not given here.

Molecular target: T1, ACE (from rabbit lung) (Oryctolagus cuniculus, UniProt P12822)
T1 construct: ACE (peptidyldipeptide hydrolase from rabbit lung acetone extract); purchased Sigma; host or cells: rabbit lung (acetone extract)
T1 sequence (P12822 34-1310): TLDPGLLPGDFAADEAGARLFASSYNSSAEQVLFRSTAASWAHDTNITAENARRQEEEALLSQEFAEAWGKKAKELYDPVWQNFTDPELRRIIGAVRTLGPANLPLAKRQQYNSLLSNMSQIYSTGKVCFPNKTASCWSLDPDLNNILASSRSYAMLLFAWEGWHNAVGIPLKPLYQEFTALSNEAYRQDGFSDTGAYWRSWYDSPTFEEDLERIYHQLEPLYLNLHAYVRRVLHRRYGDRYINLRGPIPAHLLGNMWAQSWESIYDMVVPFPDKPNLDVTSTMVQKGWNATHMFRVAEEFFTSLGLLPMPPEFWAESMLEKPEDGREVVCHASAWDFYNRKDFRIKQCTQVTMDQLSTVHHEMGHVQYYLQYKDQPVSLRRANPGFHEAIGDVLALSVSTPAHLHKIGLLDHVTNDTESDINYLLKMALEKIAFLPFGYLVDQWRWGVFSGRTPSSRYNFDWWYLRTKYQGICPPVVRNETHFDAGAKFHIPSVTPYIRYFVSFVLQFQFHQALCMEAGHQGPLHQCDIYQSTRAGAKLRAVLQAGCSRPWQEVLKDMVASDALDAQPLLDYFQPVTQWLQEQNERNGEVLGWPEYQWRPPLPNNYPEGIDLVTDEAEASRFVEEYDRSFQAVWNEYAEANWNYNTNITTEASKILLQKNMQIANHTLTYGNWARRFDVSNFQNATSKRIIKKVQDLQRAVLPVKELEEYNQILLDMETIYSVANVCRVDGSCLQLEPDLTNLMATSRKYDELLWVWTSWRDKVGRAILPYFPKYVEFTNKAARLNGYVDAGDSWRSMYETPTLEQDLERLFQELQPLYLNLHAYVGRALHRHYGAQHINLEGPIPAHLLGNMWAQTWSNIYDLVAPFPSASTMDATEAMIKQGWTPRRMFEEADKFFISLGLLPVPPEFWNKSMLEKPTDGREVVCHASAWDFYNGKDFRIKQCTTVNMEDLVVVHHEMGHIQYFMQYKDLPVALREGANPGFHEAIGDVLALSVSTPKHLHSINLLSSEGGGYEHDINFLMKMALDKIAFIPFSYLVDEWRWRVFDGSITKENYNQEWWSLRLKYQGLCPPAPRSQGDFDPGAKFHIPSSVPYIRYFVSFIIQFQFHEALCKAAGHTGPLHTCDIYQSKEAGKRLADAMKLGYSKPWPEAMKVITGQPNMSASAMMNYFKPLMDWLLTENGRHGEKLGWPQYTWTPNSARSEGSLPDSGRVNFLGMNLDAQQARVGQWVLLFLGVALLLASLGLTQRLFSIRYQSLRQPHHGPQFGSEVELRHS
Experiment: ACE inhibitory activity, spectrophotometric method (HHL substrate, hippuric acid at 228 nm)
Assay type: biochemical
Details: chemically synthesized peptides
Description: ACE inhibitory activity determination was achieved using the spectrophotometric method described by Cushman and Cheung. For each assay, 100 μL of HHL (12.5 mM in 0.05 M sodium borate buffer) was incubated at 37°C for 5 min. After incubation, 50 μL of bovine peptide extracts and 150 μL of ACE (peptidyldipeptide hydrolase from rabbit lung acetone extract) were added and the mixture incubated for 1 h. The enzymatic reaction was stopped by adding 250 μL of 0.5 N HCl. The hippuric acid generated by the action of the angiotensin-converting enzyme on HHL was extracted from the acidified solution into 1 mL ethyl acetate by vortex mixing for 15 s. This was centrifuged at 3,290×g for 10 min at 4°C, and a 0.7 mL aliquot of each ethyl acetate layer was transferred to clean tubes and evaporated by heating at 95°C for 20 min in a water bath. The hippuric acid was redissolved in 3 mL of 1 M NaCl, and the amount formed was determined by absorbance at 228 nm. The IC50 value, defined as the concentration of a peptide that inhibits 50% of the ACE activity, was determined by measuring the ACE inhibitory activity and the peptide contents of each of the extracts after regression analysis. ACE inhibitory activity (%) was determined using the equation:
ACE inhibitory activity (%)=[1-(S-SC)/(B-BC)]×100
where S and B are optical density (OD) values for the sample and blank, respectively, and SC and BC are the OD values for the sample control and blank, respectively.

Compound | IC50
CC(C)C[C@H](N)C(=O)N[C@@H](CO)C(=O)N[C@@H](Cc1c[nH]c2ccccc12)C(=O)O [Leu-Ser-Trp] (H-Leu-Ser-Trp-OH) | 0.89 mM
N=C(N)NCCC[C@H](NC(=O)[C@@H](N)Cc1ccc(O)cc1)C(=O)N[C@@H](CCC(N)=O)C(=O)O [Tyr-Arg-Gln] (H-Tyr-Arg-Gln-OH) | 3.09 mM
NC(=O)C[C@H](NC(=O)[C@H](Cc1ccccc1)NC(=O)[C@@H](N)Cc1ccc(O)cc1)C(=O)N[C@@H](CCC(=O)O)C(=O)O [Tyr-Phe-Asn-Glu] (H-YFNE-OH) | 7.62 mM
QPSGSQ [Gln-Pro-Ser-Gly-Ser-Gln] | 8.78 mM

Now from value to compound:

IC50 | Compound
5.92 mM | CSCC[C@H](N)C(=O)N[C@@H](C)C(=O)N[C@@H](CC(=O)O)C(=O)N[C@@H](C)C(=O)O [Met-Ala-Asp-Ala] (H-MADA-OH)
2.69 mM | N[C@@H](Cc1ccccc1)C(=O)NCC(=O)N[C@@H](Cc1ccc(O)cc1)C(=O)O [Phe-Gly-Tyr] (H-Phe-Gly-Tyr-OH)
12.7 mM | N[C@@H](Cc1ccc(O)cc1)C(=O)NCC(=O)O [Tyr-Gly]
8.6 mM | N[C@@H](Cc1ccc(O)cc1)C(=O)N[C@@H](Cc1ccc(O)cc1)C(=O)O [Tyr-Tyr] (H-Tyr-Tyr-OH)
8.49 mM | CC(C)[C@H](N)C(=O)N[C@@H](CO)C(=O)N[C@@H](CO)C(=O)N[C@H](C(=O)O)C(C)C [Val-Ser-Ser-Val] (H-VSSV-OH)
5.21 mM | LWHHT [Leu-Trp-His- His-Thr]
